{"source": "patent US8192962B2", "about": "“Processes for detecting toxic substances” (Daikin Industries, Ltd., priority 2001, dated 2012)", "test_system": "Mitochondria-located protein genes", "assay": "DNA chip mRNA expression in yeast, mitochondria-located protein genes (Table 2)", "format": "cell-based, Saccharomyces cerevisiae S288C", "conditions": "cells incubated two hours with the chemical substance", "summary_of_the_method": "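Value is the scanned fluorescence intensity ratio of exposed versus chemical-free cells. Log-phase S288C yeast in YPD at 25° C. received one toxic substance for two hours, dosed to slow growth without killing; Cy3/Cy5-labeled cDNA from oligo-dT-purified mRNA was hybridized to a whole-genome chip at 65° C.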"}
{"compound": "O=[N+]([O-])c1cc[n+]([O-])c2ccccc12", "note": "[(5), 4-nitroquinolin-N-oxide]", "values": [{"measurement": "The level of expressed mRNA in the presence of chemical substance/The level of expressed mRNA in the absence of chemical substance", "setting": "yeast gene YJR121W", "value": 0.8}, {"measurement": "The level of expressed mRNA in the presence of chemical substance/The level of expressed mRNA in the absence of chemical substance", "setting": "yeast gene YKL003C", "value": 1.0}, {"measurement": "The level of expressed mRNA in the presence of chemical substance/The level of expressed mRNA in the absence of chemical substance", "setting": "yeast gene YKL016C", "value": 1.5}, {"measurement": "The level of expressed mRNA in the presence of chemical substance/The level of expressed mRNA in the absence of chemical substance", "setting": "yeast gene YKL141W", "value": 1.5}, {"measurement": "The level of expressed mRNA in the presence of chemical substance/The level of expressed mRNA in the absence of chemical substance", "setting": "yeast gene YKL142W", "value": 0.7}, {"measurement": "The level of expressed mRNA in the presence of chemical substance/The level of expressed mRNA in the absence of chemical substance", "setting": "yeast gene YKL148C", "value": 0.8}, {"measurement": "The level of expressed mRNA in the presence of chemical substance/The level of expressed mRNA in the absence of chemical substance", "setting": "yeast gene YKL170W", "value": 1.3}, {"measurement": "The level of expressed mRNA in the presence of chemical substance/The level of expressed mRNA in the absence of chemical substance", "setting": "yeast gene YKL194C", "value": 1.8}, {"measurement": "The level of expressed mRNA in the presence of chemical substance/The level of expressed mRNA in the absence of chemical substance", "setting": "yeast gene YKR066C", "value": 1.0}, {"measurement": "The level of expressed mRNA in the presence of chemical substance/The level of expressed mRNA in the absence of chemical substance", "setting": "yeast gene YLL041C", "value": 1.6}, {"measurement": "The level of expressed mRNA in the presence of chemical substance/The level of expressed mRNA in the absence of chemical substance", "setting": "yeast gene YLR038C", "value": 1.8}, {"measurement": "The level of expressed mRNA in the presence of chemical substance/The level of expressed mRNA in the absence of chemical substance", "setting": "yeast gene YLR259C", "value": 1.1}, {"measurement": "The level of expressed mRNA in the presence of chemical substance/The level of expressed mRNA in the absence of chemical substance", "setting": "yeast gene YLR295C", "value": 2.2}, {"measurement": "The level of expressed mRNA in the presence of chemical substance/The level of expressed mRNA in the absence of chemical substance", "setting": "yeast gene YLR304C", "value": 0.6}, {"measurement": "The level of expressed mRNA in the presence of chemical substance/The level of expressed mRNA in the absence of chemical substance", "setting": "yeast gene YLR348C", "value": 0.9}, {"measurement": "The level of expressed mRNA in the presence of chemical substance/The level of expressed mRNA in the absence of chemical substance", "setting": "yeast gene YLR395C", "value": 0.7}, {"measurement": "The level of expressed mRNA in the presence of chemical substance/The level of expressed mRNA in the absence of chemical substance", "setting": "yeast gene YML054C", "value": 1.3}, {"measurement": "The level of expressed mRNA in the presence of chemical substance/The level of expressed mRNA in the absence of chemical substance", "setting": "yeast gene YML120C", "value": 0.6}, {"measurement": "The level of expressed mRNA in the presence of chemical substance/The level of expressed mRNA in the absence of chemical substance", "setting": "yeast gene YML129C", "value": 1.7}, {"measurement": "The level of expressed mRNA in the presence of chemical substance/The level of expressed mRNA in the absence of chemical substance", "setting": "yeast gene YMR023C", "value": 1.7}, {"measurement": "The level of expressed mRNA in the presence of chemical substance/The level of expressed mRNA in the absence of chemical substance", "setting": "yeast gene YMR035W", "value": 0.8}, {"measurement": "The level of expressed mRNA in the presence of chemical substance/The level of expressed mRNA in the absence of chemical substance", "setting": "yeast gene YMR083W", "value": 1.5}, {"measurement": "The level of expressed mRNA in the presence of chemical substance/The level of expressed mRNA in the absence of chemical substance", "setting": "yeast gene YMR089C", "value": 0.8}, {"measurement": "The level of expressed mRNA in the presence of chemical substance/The level of expressed mRNA in the absence of chemical substance", "setting": "yeast gene YMR152W", "value": 0.8}, {"measurement": "The level of expressed mRNA in the presence of chemical substance/The level of expressed mRNA in the absence of chemical substance", "setting": "yeast gene YMR193W", "value": 2.2}, {"measurement": "The level of expressed mRNA in the presence of chemical substance/The level of expressed mRNA in the absence of chemical substance", "setting": "yeast gene YMR203W", "value": 0.6}, {"measurement": "The level of expressed mRNA in the presence of chemical substance/The level of expressed mRNA in the absence of chemical substance", "setting": "yeast gene YMR267W", "value": 1.0}, {"measurement": "The level of expressed mRNA in the presence of chemical substance/The level of expressed mRNA in the absence of chemical substance", "setting": "yeast gene YNL055C", "value": 0.9}, {"measurement": "The level of expressed mRNA in the presence of chemical substance/The level of expressed mRNA in the absence of chemical substance", "setting": "yeast gene YNL071W", "value": 0.6}, {"measurement": "The level of expressed mRNA in the presence of chemical substance/The level of expressed mRNA in the absence of chemical substance", "setting": "yeast gene YNL073W", "value": 0.6}, {"measurement": "The level of expressed mRNA in the presence of chemical substance/The level of expressed mRNA in the absence of chemical substance", "setting": "yeast gene YNL104C", "value": 0.8}, {"measurement": "The level of expressed mRNA in the presence of chemical substance/The level of expressed mRNA in the absence of chemical substance", "setting": "yeast gene YNL256W", "value": 1.0}, {"measurement": "The level of expressed mRNA in the presence of chemical substance/The level of expressed mRNA in the absence of chemical substance", "setting": "yeast gene YOL096C", "value": 1.2}, {"measurement": "The level of expressed mRNA in the presence of chemical substance/The level of expressed mRNA in the absence of chemical substance", "setting": "yeast gene YOR020C", "value": 1.5}, {"measurement": "The level of expressed mRNA in the presence of chemical substance/The level of expressed mRNA in the absence of chemical substance", "setting": "yeast gene YOR037W", "value": 1.5}, {"measurement": "The level of expressed mRNA in the presence of chemical substance/The level of expressed mRNA in the absence of chemical substance", "setting": "yeast gene YOR100C", "value": 1.0}, {"measurement": "The level of expressed mRNA in the presence of chemical substance/The level of expressed mRNA in the absence of chemical substance", "setting": "yeast gene YOR130C", "value": 1.8}, {"measurement": "The level of expressed mRNA in the presence of chemical substance/The level of expressed mRNA in the absence of chemical substance", "setting": "yeast gene YOR142W", "value": 1.4}, {"measurement": "The level of expressed mRNA in the presence of chemical substance/The level of expressed mRNA in the absence of chemical substance", "setting": "yeast gene YOR150W", "value": 0.8}, {"measurement": "The level of expressed mRNA in the presence of chemical substance/The level of expressed mRNA in the absence of chemical substance", "setting": "yeast gene YOR176W", "value": 1.0}, {"measurement": "The level of expressed mRNA in the presence of chemical substance/The level of expressed mRNA in the absence of chemical substance", "setting": "yeast gene YOR187W", "value": 0.6}, {"measurement": "The level of expressed mRNA in the presence of chemical substance/The level of expressed mRNA in the absence of chemical substance", "setting": "yeast gene YOR316C", "value": 1.0}, {"measurement": "The level of expressed mRNA in the presence of chemical substance/The level of expressed mRNA in the absence of chemical substance", "setting": "yeast gene YPL040C", "value": 0.8}, {"measurement": "The level of expressed mRNA in the presence of chemical substance/The level of expressed mRNA in the absence of chemical substance", "setting": "yeast gene YPL134C", "value": 1.4}, {"measurement": "The level of expressed mRNA in the presence of chemical substance/The level of expressed mRNA in the absence of chemical substance", "setting": "yeast gene YPL135W", "value": 1.6}, {"measurement": "The level of expressed mRNA in the presence of chemical substance/The level of expressed mRNA in the absence of chemical substance", "setting": "yeast gene YPL215W", "value": 0.8}, {"measurement": "The level of expressed mRNA in the presence of chemical substance/The level of expressed mRNA in the absence of chemical substance", "setting": "yeast gene YPL262W", "value": 0.6}, {"measurement": "The level of expressed mRNA in the presence of chemical substance/The level of expressed mRNA in the absence of chemical substance", "setting": "yeast gene YPR024W", "value": 1.3}, {"measurement": "The level of expressed mRNA in the presence of chemical substance/The level of expressed mRNA in the absence of chemical substance", "setting": "yeast gene YPR037C", "value": 0.8}, {"measurement": "The level of expressed mRNA in the presence of chemical substance/The level of expressed mRNA in the absence of chemical substance", "setting": "yeast gene YPR047W", "value": 0.9}, {"measurement": "The level of expressed mRNA in the presence of chemical substance/The level of expressed mRNA in the absence of chemical substance", "setting": "yeast gene YPR134W", "value": 1.5}]}
